“And” between values parts separate entries of the source, which are not always exact repeats. Equal values may be shown once.
Assays:
hOATP1B3 [1] = biological target: T1, hOATP1B3 (Homo sapiens, UniProt Q9NPD5); test: Nilotinib uptake in HEK293 cells overexpressing hOATP1B3; format: in vitro ADME; conditions: HEK293 cells overexpressing hOATP1B3 vs vector control
T1 sequence (Q9NPD5 1-702): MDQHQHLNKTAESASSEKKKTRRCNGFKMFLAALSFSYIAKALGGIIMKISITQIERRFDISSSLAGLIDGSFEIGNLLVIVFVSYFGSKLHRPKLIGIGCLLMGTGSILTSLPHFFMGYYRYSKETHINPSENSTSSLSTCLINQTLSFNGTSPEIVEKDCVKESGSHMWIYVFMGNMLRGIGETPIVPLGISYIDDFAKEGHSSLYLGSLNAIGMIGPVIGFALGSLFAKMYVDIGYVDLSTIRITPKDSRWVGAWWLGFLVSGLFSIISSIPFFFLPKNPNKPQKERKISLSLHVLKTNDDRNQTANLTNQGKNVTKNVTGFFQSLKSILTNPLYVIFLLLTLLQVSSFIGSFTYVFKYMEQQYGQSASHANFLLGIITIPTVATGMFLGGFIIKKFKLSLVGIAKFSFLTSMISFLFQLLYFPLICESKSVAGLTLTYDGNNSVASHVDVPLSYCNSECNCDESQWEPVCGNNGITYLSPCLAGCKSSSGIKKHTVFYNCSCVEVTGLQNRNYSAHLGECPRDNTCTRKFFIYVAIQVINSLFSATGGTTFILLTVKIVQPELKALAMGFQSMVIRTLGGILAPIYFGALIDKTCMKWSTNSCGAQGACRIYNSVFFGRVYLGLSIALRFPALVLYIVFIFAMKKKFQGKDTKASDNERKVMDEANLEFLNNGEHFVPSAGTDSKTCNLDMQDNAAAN

mOATP1B2 = biological target: T2, mOATP1B2 (Mus musculus, UniProt Q9JJL3); test: Inhibition of vincristine uptake in HEK293 cells overexpressing mOATP1B2; format: cell-based; conditions: HEK293 mOATP1B2; inhibitor 15 min pre-treatment
T2 sequence (Q9JJL3 1-689): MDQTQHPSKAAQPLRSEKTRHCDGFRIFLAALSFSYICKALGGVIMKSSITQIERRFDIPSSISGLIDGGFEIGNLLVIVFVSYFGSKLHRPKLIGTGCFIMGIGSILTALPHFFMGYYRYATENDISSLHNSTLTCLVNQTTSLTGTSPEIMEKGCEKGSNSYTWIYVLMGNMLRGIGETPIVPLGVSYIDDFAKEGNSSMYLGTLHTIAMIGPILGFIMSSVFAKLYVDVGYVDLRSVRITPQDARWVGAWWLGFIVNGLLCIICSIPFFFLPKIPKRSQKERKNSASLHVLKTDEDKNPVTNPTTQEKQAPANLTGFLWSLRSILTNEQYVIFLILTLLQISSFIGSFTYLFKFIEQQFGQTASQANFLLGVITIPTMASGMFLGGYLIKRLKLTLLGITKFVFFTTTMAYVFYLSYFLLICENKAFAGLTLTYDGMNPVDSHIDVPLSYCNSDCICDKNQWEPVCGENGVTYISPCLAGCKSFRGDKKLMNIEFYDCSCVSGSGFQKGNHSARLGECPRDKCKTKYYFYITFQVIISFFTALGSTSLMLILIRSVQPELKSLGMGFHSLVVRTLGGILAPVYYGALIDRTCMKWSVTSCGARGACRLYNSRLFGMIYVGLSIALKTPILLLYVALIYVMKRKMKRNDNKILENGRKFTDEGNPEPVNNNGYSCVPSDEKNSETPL

hOATP1B3 [2] = biological target: T1, hOATP1B3; test: Inhibition of vincristine uptake in HEK293 cells overexpressing hOATP1B3; conditions: inhibitor 15 min pre-treatment
LYN kinase = biological target: T3, LYN kinase (Mus musculus, UniProt P25911); test: Phosphorylation of LYN kinase in DRG of mice (phospho-LYN/total LYN); format: in vivo
T3 construct: from tissue
Procedure: mg/kg; p.o.) wild-type mice, using specific antibodies for phospho-LYN and total LYN (n = 3 per group).
(C) Mechanical allodynia in wild-type mice and LYN-deficient [LYN(-/-)] mice 24 h after a single dose of
Data presented represent the mean (bars) ± SEM (error
bars), and paw sensitivity is expressed as a percentage over baseline values. Statistical analysis was […]

RS411 = test: Cytotoxicity of vincristine with or without nilotinib, MTT assay, RS411; format: cell-based, human; conditions: RS411 cells, vincristine alone, individual replicates
MOLT4 = test: Cytotoxicity of vincristine with or without nilotinib, MTT assay, MOLT4; format: cell-based, human; conditions: vincristine alone, individual replicates

T3 sequence (P25911 whole entry): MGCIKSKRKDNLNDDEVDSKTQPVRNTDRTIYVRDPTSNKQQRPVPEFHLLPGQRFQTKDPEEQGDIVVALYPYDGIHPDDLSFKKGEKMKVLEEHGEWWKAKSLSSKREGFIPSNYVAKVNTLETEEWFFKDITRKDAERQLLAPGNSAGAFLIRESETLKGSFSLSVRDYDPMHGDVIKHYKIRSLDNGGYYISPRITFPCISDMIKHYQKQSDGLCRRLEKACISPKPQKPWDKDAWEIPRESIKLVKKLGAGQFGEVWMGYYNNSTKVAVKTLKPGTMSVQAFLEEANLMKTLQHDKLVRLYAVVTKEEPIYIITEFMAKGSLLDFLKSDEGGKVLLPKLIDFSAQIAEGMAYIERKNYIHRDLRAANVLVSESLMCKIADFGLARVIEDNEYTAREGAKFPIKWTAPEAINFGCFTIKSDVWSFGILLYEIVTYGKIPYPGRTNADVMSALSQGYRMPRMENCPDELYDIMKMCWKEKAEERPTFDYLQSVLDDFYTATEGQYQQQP

Compound | Nilotinib uptake (% of control) (hOATP1B3 [1]) | Vincristine uptake (% of vehicle) (mOATP1B2) | Vincristine uptake (% of vehicle) (hOATP1B3 [2]) | DRG Phosho-LYN/Total LYN (% of Untreated) (LYN kinase; DRG of mice) | Phosphorylated-LYN in DRG neurons (LYN kinase; nilotinib 100 mg/kg p.o., wild-type mice) | IC50 (RS411) | IC50 (MOLT4; Homo sapiens, MOLT-4, MOLT4 cells) | IC50 (MOLT4; MOLT4 cells)
Cc1cn(-c2cc(NC(=O)c3ccc(C)c(Nc4nccc(-c5cccnc5)n4)c3)cc(C(F)(F)F)c2)cn1 [Nilotinib, nilotinib] | 123.521 % of control and 118.661 % of control and 108.968 % of control | 73.0702 % of vehicle and 58.7366 % of vehicle and 55.2034 % of vehicle and 63.6149 % of vehicle and 58.7604 % of vehicle and 51.7599 % of vehicle | 56.9618 % of vehicle and 79.3107 % of vehicle and 46.7964 % of vehicle and 63.7354 % of vehicle and 65.1694 % of vehicle and 69.9849 % of vehicle | 47.9691 % of Untreated and 52.4315 % of Untreated and 37.2669 % of Untreated | significant inhibition of phosphorylated-LYN in DRG neurons | – | – | –
CC[C@]1(O)C[C@H]2CN(CCc3c([nH]c4ccccc34)[C@@](C(=O)OC)(c3cc4c(cc3OC)N(C=O)[C@H]3[C@@](O)(C(=O)OC)[C@H](OC(C)=O)[C@]5(CC)C=CCN6CC[C@]43[C@@H]65)C2)C1 [Vincristine, vincristine] | – | – | – | – | – | 4.81 nM and 6.23 nM and 4 nM and 8.42 nM and 6.45 nM and 7.46 nM and 5.33 nM and 4.58 nM and 7.35 nM | 6.88 nM | 6.2 nM and 9.07 nM and 9.04 nM and 7.56 nM and 10.2 nM and 7.73 nM and 7.86 nM and 6.95 nM
